Molecules are shown by their SMILES.

For one assay, the system named is GABA binding site / benzodiazepine binding site.
Test: not given
The following applies: Tallman et al. 1978; cited from earlier work.
With `CN1CCc2cc3c(cc2C1C1OC(=O)c2c1ccc1c2OCO1)OCO3` (single isomer, unassigned; (+)) [(+) bicuculline], the “block of enhancement of benzodiazepine binding by GABA agonists” value was “blocked”.

As for `CN1CCc2cc3c(cc2C1C1OC(=O)c2c1ccc1c2OCO1)OCO3` (single isomer, unassigned; (-)) [(-) bicuculline], the “block of enhancement of benzodiazepine binding by GABA agonists” value is “much less active”.

A further assay deals with GABAa receptor. Briefly: GABAa receptor binding activity ([3H]-RO15-1788 displacement, rat cortical tissue). The settings on record: 0.5 nM [3H]-RO15-1788, 30 min at 4° C., nonspecific with 1.0 μM diazepam. As for the experimental part:
The pharmaceutical utility of compounds of this invention are indicated by the following assay for GABAa receptor binding activity.
Assays are carried out as described in Thomas and Tallman (J. Bio. Chem. 156:9838-9842, J. Neurosci. 3:433-440, 1983). Rat conical tissue is dissected and homogenized in 25 volumes (w/v) of 0.05M Tris HCl buffer (pH 7.4 at 4° C.). The tissue homogenate is centrifuged in the cold (4°) at 20,000×g for 20'. The supernatant is decanted and the pellet is rehomogenized in the same volume of buffer and again centrifuged at 20,000×g. The supernatant is decanted and the pellet is frozen at -20° C. overnight. The pellet is then thawed and rehomogenized in 25 volume (original wt/vol) of buffer and the procedure is carried out twice. The pellet is finally resuspended in 50 volumes (w/vol of 0.05M Tris HCl buffer (pH 7.4 at […]).
Incubations contain 100 μl of tissue homogenate, 100 μl of radioligand 0.5 nM (^3 H-RO15 -1788 [^3 H-Flumazenil] specific activity 80 Ci/mmol), drug or blocker and buffer to a total volume of 500 μl. Incubations are carried for 30 min at 4° C. then are rapidly filtered through GFB filters to separate free and bound ligand. Filters are washed twice with fresh 0.05M Tris HCl buffer (pH 7.4 at 4° C.) and counted in a liquid scintillation counter. 1.0 μM diazepam is added to some tubes to determine nonspecific binding. Data are collected in triplicate determinations, averaged and % inhibition of total specific binding is calculated. Total Specific Binding=Total-Nonspecific. In sonic cases, the amounts of unlabeled drugs is varied and total displacement curves of binding are carried out. Data are converted to a form for the calculation of IC50 and Hill Coefficient (nH).
As a reminder, the IC50 is the concentration that inhibits the measured activity by half. The low end stands for greater potency, the high end for weaker potency. The compound `COc1ccc(F)c(-c2ncc3[nH]c4ccccc4n3c2=O)c1` [Compound 2, 2-(2-Fluoro-5-methoxyphenyl)-benzimidazo[1,2-a]pyrazin-1(5H)-one] showed an IC50 of 167 nM.

`O=c1c(-c2ccccc2)ncc2[nH]c3ccccc3n12` [Compound 3, 2-Phenyl-benzimidazo[1,2-a]pyrazin-1(5H)-one] returned an IC50 of 93 nM.

`COc1ccc(-c2ncc3[nH]c4ccccc4n3c2=O)cc1` [Compound 1, 2-(4-Methoxyphenyl)-benzimidazo[1,2-a]pyrazin-1(5H)-one] had an IC50 of 15 nM.

In the case of `COc1cccc(-c2ncc3[nH]c4ccccc4n3c2=O)c1` [Compound 4], the IC50 was 61 nM.

These data come from US5610299A (priority 1995, dated 1997).
